{
  "source": "ChEMBL document CHEMBL5154648",
  "about": "“Antitumor activity of novel POLA1-HDAC11 dual inhibitors” (Eur J Med Chem, 2022)",
  "key": {"NCI-H460 [1]": {"test_system": "NCI-H460", "assay": "Induction of cell cycle arrest in human NCI-H460 cells assessed as accumulation of cells at G2/M phase at 0.12 uM after 72 hrs by flow cytometry (reference value: 21.1%)", "format": "functional"}, "[2]": {"assay": "Toxicity in mouse xenografted with human NCI-H460 cells assessed as body weight loss at 20 mg/kg, po qd administered 5 times a week for 3 to 4 weeks", "format": "organism-based", "conditions": "in vivo, time 3-4 weeks"}, "NCI-H460 [3]": {"test_system": "NCI-H460", "assay": "Antitumor activity against human NCI-H460 cells xenografted in mouse assessed as tumor growth inhibition at 20 mg/kg, po qd administered […] for 3 to 4 weeks", "format": "functional", "conditions": "time 3-4 weeks, read-out: TGI"}, "[4]": {"assay": "Antitumor activity against human H460-R9A cells xenografted in mouse assessed as tumor growth inhibition at 20 mg/kg, po qd administered […] for 3 to 4 weeks", "format": "functional", "conditions": "time 3-4 weeks, read-out: TGI"}, "NCI-H460 [5]": {"test_system": "NCI-H460", "assay": "Induction of cell cycle arrest in human NCI-H460 cells assessed as accumulation of cells at sub-G1 phase at 0.25 uM after 72 hrs by flow cytometry (reference value: 1.1%)", "format": "functional"}, "NCI-H460 [6]": {"test_system": "NCI-H460", "assay": "Induction of cell cycle arrest in human NCI-H460 cells assessed as accumulation of cells at G0/1 phase at 0.25 uM after 72 hrs by flow cytometry (reference value: 46.8%)", "format": "functional"}, "NCI-H460 [7]": {"test_system": "NCI-H460", "assay": "Induction of cell cycle arrest in human NCI-H460 cells assessed as accumulation of cells at G2/M phase at 0.25 uM after 72 hrs by flow cytometry (reference value: 21.1%)", "format": "functional"}, "A2780 [8]": {"test_system": "A2780", "assay": "Induction of cell cycle arrest in human A2780 cells assessed as accumulation of cells at G0/1 phase at 0.6 uM after 72 hrs by flow cytometry (reference value: 48.7%)", "format": "functional"}, "[9]": {"assay": "Induction of cell cycle arrest in human H460-R9A cells assessed as accumulation of cells at sub-G1 phase at 2.8 uM after 72 hrs by flow cytometry (reference value: 1.5%)", "format": "functional"}, "[10]": {"assay": "Toxicity in mouse xenografted with human NCI-H460 cells assessed as body weight loss at 50 mg/kg, po qd administered 5 times a week for 3 to 4 weeks", "format": "organism-based", "conditions": "in vivo, time 3-4 weeks"}, "NCI-H460 [11]": {"test_system": "NCI-H460", "assay": "Antitumor activity against human NCI-H460 cells xenografted in mouse assessed as tumor growth inhibition at 50 mg/kg, po qd administered 5 times a week for 3 to 4 weeks", "format": "functional", "conditions": "time 3-4 weeks, read-out: TGI"}, "[12]": {"assay": "Toxicity in mouse xenografted with human H460-R9A cells assessed as body weight loss at 50 mg/kg, po qd administered 5 times a week for 3 to 4 weeks", "format": "organism-based", "conditions": "in vivo, time 3-4 weeks"}, "[13]": {"assay": "Antitumor activity against human H460-R9A cells xenografted in mouse assessed as tumor growth inhibition at 50 mg/kg, po qd administered 5 times a week for 3 to 4 weeks", "format": "functional", "conditions": "time 3-4 weeks, read-out: TGI"}, "Mus musculus": {"test_system": "Mus musculus", "assay": "Inhibition of POLA1 in mouse B16 cells xenografted C57BL/6 mouse assessed as increase in IFN-alpha levels at 50 mg/kg, po administered twice a day for 5 days measured by ELISA assay", "format": "functional, organism-based", "conditions": "time 5.0 day"}, "[14]": {"target": "T1, Protein deacetylase HDAC6 (Homo sapiens) (UniProt Q9UBN7)", "T1 sequence (whole entry)": "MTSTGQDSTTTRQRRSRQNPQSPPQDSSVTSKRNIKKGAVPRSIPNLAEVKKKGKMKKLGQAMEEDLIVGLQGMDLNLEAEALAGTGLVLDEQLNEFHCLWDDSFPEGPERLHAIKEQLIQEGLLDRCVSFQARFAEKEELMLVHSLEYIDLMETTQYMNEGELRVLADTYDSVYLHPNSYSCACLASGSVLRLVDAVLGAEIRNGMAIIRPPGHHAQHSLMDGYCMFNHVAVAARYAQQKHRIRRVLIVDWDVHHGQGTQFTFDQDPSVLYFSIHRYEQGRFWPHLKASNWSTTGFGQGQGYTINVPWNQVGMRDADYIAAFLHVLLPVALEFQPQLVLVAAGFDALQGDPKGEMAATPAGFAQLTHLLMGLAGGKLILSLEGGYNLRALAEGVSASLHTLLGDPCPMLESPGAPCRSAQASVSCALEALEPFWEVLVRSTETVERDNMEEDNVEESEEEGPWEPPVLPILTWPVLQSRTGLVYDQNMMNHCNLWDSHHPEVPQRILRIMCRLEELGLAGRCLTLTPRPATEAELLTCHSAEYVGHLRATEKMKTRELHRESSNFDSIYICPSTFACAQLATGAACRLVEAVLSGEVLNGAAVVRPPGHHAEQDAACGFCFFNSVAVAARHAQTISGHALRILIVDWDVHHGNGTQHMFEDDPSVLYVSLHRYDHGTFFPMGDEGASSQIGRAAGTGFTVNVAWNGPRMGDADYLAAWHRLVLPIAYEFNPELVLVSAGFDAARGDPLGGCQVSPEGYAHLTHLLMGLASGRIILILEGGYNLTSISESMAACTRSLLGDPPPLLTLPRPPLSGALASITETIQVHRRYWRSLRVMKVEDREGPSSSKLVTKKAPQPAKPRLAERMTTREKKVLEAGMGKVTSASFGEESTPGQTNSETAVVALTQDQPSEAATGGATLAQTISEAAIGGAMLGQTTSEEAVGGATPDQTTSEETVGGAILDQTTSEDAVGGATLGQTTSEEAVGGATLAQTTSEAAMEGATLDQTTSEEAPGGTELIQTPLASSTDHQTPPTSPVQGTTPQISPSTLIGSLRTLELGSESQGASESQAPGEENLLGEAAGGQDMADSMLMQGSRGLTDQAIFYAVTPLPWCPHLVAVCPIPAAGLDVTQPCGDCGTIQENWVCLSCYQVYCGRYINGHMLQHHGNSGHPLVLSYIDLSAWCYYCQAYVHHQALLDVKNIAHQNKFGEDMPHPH", "assay": "Inhibition of HDAC6 in human NCI-H460 cells at high-dose assessed as increase in alpha-tubulin acetylation measured by Western blot analysis", "format": "cell-based"}, "A2780 [15]": {"test_system": "A2780", "assay": "Induction of DNA damage in human A2780 cells at 0.1 to 0.4 uM assessed as increase in p-H2AX levels and measured by Western blot analysis", "format": "functional, cell-based", "conditions": "dose 0.1-0.4 µM"}, "NCI-H460 [16]": {"test_system": "NCI-H460", "assay": "Induction of cell cycle arrest in human NCI-H460 cells assessed as accumulation of cells at G0/1 phase at 0.26 uM after 72 hrs by flow cytometry (reference value: 46.8%)", "format": "functional"}, "A2780 [17]": {"test_system": "A2780", "assay": "Induction of cell cycle arrest in human A2780 cells assessed as accumulation of cells at S phase at 0.95 uM after 72 hrs by flow cytometry (reference value: 36.3%)", "format": "functional"}, "MM473": {"test_system": "MM473", "assay": "Induction of cell cycle arrest in human MM473-Luc cells assessed as accumulation of cells at G0/1 phase at 1.4 uM after 72 hrs by flow cytometry (reference value: 74.7%)", "format": "functional"}},
  "note": "Calls of active or inactive are those of the source. The rule behind the calls is not given here.",
  "data": [
    {"compound": "O=C(O)C=Cc1ccc(-c2ccc(O)c(C34CC5CC(CC(C5)C3)C4)c2)cc1", "values": [
      {"measurement": "Activity", "setting": "NCI-H460 [1]", "value": 6.5, "unit": "%"},
      {"measurement": "Activity", "setting": "[2]", "value": 0, "unit": "%"},
      {"measurement": "inhibition in vivo at 20 mg/kg", "setting": "NCI-H460 [3]", "value": 64, "unit": "%"},
      {"measurement": "inhibition in vivo at 20 mg/kg", "setting": "[4]", "value": 0, "unit": "%"}
    ]},
    {"compound": "O=C(O)C=Cc1ccc(-c2ccc(OCC(=O)NO)c(C34CC5CC(CC(C5)C3)C4)c2)cc1", "values": [
      {"measurement": "Activity", "setting": "NCI-H460 [5]", "value": 12.1, "unit": "%"},
      {"measurement": "Activity", "setting": "NCI-H460 [6]", "value": 16.3, "unit": "%"},
      {"measurement": "Activity", "setting": "NCI-H460 [7]", "value": 2.8, "unit": "%"},
      {"measurement": "Activity", "setting": "A2780 [8]", "value": 14.6, "unit": "%"},
      {"measurement": "Activity", "setting": "[9]", "value": 37.8, "unit": "%"},
      {"measurement": "Activity", "setting": "[10]", "value": 0, "unit": "%"},
      {"measurement": "inhibition in vivo at 50 mg/kg", "setting": "NCI-H460 [11]", "value": 61, "unit": "%"},
      {"measurement": "Activity", "setting": "[12]", "value": 0, "unit": "%"},
      {"measurement": "inhibition in vivo at 50 mg/kg", "setting": "[13]", "value": 38, "unit": "%"},
      {"measurement": "inhibition", "setting": "Mus musculus", "value": "Active"}
    ]},
    {"compound": "CC(Oc1ccc(-c2ccc(C=CC(=O)O)cc2)cc1C12CC3CC(CC(C3)C1)C2)C(=O)NO", "note": "(centres undefined)", "values": [
      {"measurement": "inhibition", "setting": "[14]", "value": "Active"},
      {"measurement": "Activity", "setting": "A2780 [15]", "value": "Active"},
      {"measurement": "Activity", "setting": "NCI-H460 [16]", "value": 10.9, "unit": "%"},
      {"measurement": "Activity", "setting": "A2780 [17]", "value": 86.2, "unit": "%"},
      {"measurement": "Activity", "setting": "MM473", "value": 2.3, "unit": "%"}
    ]}
  ]
}
